# PubChem BioAssay (NCI)
#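 Exposure lasted 48 hours, with cells grown in 96-well plates and compounds tested at five concentrations. The concentration for 50% growth inhibition is given as GI50. TGI denotes the concentration required for complete inhibition of growth.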
# Tests used:
# Experiment in all cases: NCI tumour cell line growth inhibition, 48 h
# [1] = system: 786-0 renal
# [2] = system: A498 renal
# [3] = system: A549 NSCLC
# [4] = system: ACHN renal
# [5] = system: BT-549 breast
# [6] = system: CAKI-1 renal
# [7] = system: CCRF-CEM leukemia
# [8] = system: COLO 205 colon
# [9] = system: DU-145 prostate
# [10] = system: EKVX NSCLC
# [11] = system: HCC-2998 colon
# [12] = system: HCT-116 colon
# [13] = system: HCT-15 colon
# [14] = system: HL-60(TB) leukemia
# [15] = system: HOP-62 NSCLC
# [16] = system: HOP-92 NSCLC
# [17] = system: HS 578T breast
# [18] = system: HT29 colon
# [19] = system: IGROV1 ovarian
# [20] = system: K-562 leukemia
# [21] = system: KM12 colon
# [22] = system: LOX IMVI melanoma
# [23] = system: M14 melanoma
# [24] = system: MALME-3M melanoma
# [25] = system: MCF7 breast
# [26] = system: MDA-MB-231 breast
# [27] = system: MDA-MB-435
# [28] = system: MDA-N
# [29] = system: MOLT-4 leukemia
# [30] = system: NCI-H23 lung
# [31] = system: NCI-H460 lung
# [32] = system: NCI-H522 lung
# [33] = system: OVCAR-3 ovarian
# [34] = system: OVCAR-4 ovarian
# [35] = system: OVCAR-5 ovarian
# [36] = system: OVCAR-8 ovarian
# [37] = system: PC-3 prostate
# [38] = system: RPMI-8226 leukemia
# [39] = system: RXF 393 renal
# [40] = system: SF-268 CNS
# [41] = system: SF-295 CNS
# [42] = system: SF-539 CNS
# [43] = system: SK-MEL-2 melanoma
# [44] = system: SK-MEL-28 melanoma
# [45] = system: SK-MEL-5 melanoma
# [46] = system: SK-OV-3 ovarian
# [47] = system: SN12C renal
# [48] = system: SNB-19 CNS
# [49] = system: SNB-75 CNS
# [50] = system: SR leukemia
# [51] = system: SW-620 colon
# [52] = system: T-47D breast
# [53] = system: TK-10 renal
# [54] = system: U251 CNS
# [55] = system: UACC-257 melanoma
# [56] = system: UACC-62 melanoma
# [57] = system: UO-31 renal
smiles,measurement,setting,value
CCC[CH2][Pb]([Cl])([CH2]CCC)[CH2]CCC,GI50,[1],0.0177 µM
same,TGI,[1],0.037 µM
same,GI50,[2],0.0483 µM
same,TGI,[2],0.148 µM
same,GI50,[3],0.0264 µM
same,TGI,[3],0.0936 µM
same,GI50,[4],0.0221 µM
same,TGI,[4],0.0558 µM
same,GI50,[5],0.031 µM
same,TGI,[5],0.137 µM
same,GI50,[6],0.0673 µM
same,TGI,[6],0.199 µM
same,GI50,[7],0.0553 µM
same,TGI,[7],1.15 µM
same,GI50,[8],0.0194 µM
same,TGI,[8],0.0358 µM
same,GI50,[9],0.0978 µM
same,TGI,[9],0.22 µM
same,GI50,[10],0.066 µM
same,TGI,[10],0.218 µM
same,GI50,[11],0.0439 µM
same,TGI,[11],0.136 µM
same,GI50,[12],0.0176 µM
same,TGI,[12],0.0345 µM
same,GI50,[13],0.0195 µM
same,TGI,[13],0.0487 µM
same,GI50,[14],0.0232 µM
same,TGI,[14],0.0444 µM
same,GI50,[15],0.128 µM
same,TGI,[15],0.258 µM
same,GI50,[16],0.058 µM
same,TGI,[16],0.196 µM
same,GI50,[17],0.0317 µM
same,TGI,[17],0.0913 µM
same,GI50,[18],0.0252 µM
same,TGI,[18],0.0645 µM
same,GI50,[19],0.0603 µM
same,TGI,[19],0.179 µM
same,GI50,[20],0.0277 µM
same,TGI,[20],0.931 µM
same,GI50,[21],0.0326 µM
same,TGI,[21],0.081 µM
same,GI50,[22],0.0223 µM
same,TGI,[22],0.045 µM
same,GI50,[23],0.0192 µM
same,TGI,[23],0.0417 µM
same,GI50,[24],0.00428 µM
same,TGI,[24],0.0261 µM
same,GI50,[25],0.0161 µM
same,TGI,[25],0.0361 µM
same,GI50,[26],0.0328 µM
same,TGI,[26],0.122 µM
same,GI50,[27],0.0178 µM
same,TGI,[27],0.0366 µM
same,GI50,[28],0.0196 µM
same,TGI,[28],0.0461 µM
same,GI50,[29],0.0245 µM
same,TGI,[29],0.731 µM
same,GI50,[30],0.0298 µM
same,TGI,[30],0.116 µM
same,GI50,[31],0.0177 µM
same,TGI,[31],0.0417 µM
same,GI50,[32],0.0321 µM
same,TGI,[32],0.104 µM
same,GI50,[33],0.0204 µM
same,TGI,[33],0.0499 µM
same,GI50,[34],0.0472 µM
same,TGI,[34],0.184 µM
same,GI50,[35],0.034 µM
same,TGI,[35],0.134 µM
same,GI50,[36],0.0206 µM
same,TGI,[36],0.0464 µM
same,GI50,[37],0.0355 µM
same,TGI,[37],0.119 µM
same,GI50,[38],0.0157 µM
same,TGI,[38],0.0531 µM
same,GI50,[39],0.0231 µM
same,TGI,[39],0.0635 µM
same,GI50,[40],0.0192 µM
same,TGI,[40],0.0677 µM
same,GI50,[41],0.13 µM
same,TGI,[41],0.26 µM
same,GI50,[42],0.0338 µM
same,TGI,[42],0.0892 µM
same,GI50,[43],0.0229 µM
same,TGI,[43],0.0724 µM
same,GI50,[44],0.0276 µM
same,TGI,[44],0.0792 µM
same,GI50,[45],0.0534 µM
same,TGI,[45],0.128 µM
same,GI50,[46],0.12 µM
same,TGI,[46],0.257 µM
same,GI50,[47],0.0152 µM
same,TGI,[47],0.0294 µM
same,GI50,[48],0.188 µM
same,TGI,[48],0.33 µM
same,GI50,[49],0.0215 µM
same,TGI,[49],0.114 µM
same,GI50,[50],0.0671 µM
same,GI50,[51],0.0185 µM
same,TGI,[51],0.0345 µM
same,GI50,[52],0.0181 µM
same,TGI,[52],0.0383 µM
same,GI50,[53],0.0317 µM
same,TGI,[53],0.0913 µM
same,GI50,[54],0.0161 µM
same,TGI,[54],0.0304 µM
same,GI50,[55],0.0589 µM
same,TGI,[55],0.157 µM
same,GI50,[56],0.0459 µM
same,TGI,[56],0.112 µM
same,GI50,[57],0.031 µM
same,TGI,[57],0.0809 µM
